Calls of active or inactive are those of the source. Rule as the data show it, for most assays here: actives have a measured Kd and inactives only a lower limit.
How the values were obtained:
Activin receptor type-1B = molecular target: T1, Activin receptor type-1B (Homo sapiens, UniProt P36896)
T1 sequence (P36896 whole entry): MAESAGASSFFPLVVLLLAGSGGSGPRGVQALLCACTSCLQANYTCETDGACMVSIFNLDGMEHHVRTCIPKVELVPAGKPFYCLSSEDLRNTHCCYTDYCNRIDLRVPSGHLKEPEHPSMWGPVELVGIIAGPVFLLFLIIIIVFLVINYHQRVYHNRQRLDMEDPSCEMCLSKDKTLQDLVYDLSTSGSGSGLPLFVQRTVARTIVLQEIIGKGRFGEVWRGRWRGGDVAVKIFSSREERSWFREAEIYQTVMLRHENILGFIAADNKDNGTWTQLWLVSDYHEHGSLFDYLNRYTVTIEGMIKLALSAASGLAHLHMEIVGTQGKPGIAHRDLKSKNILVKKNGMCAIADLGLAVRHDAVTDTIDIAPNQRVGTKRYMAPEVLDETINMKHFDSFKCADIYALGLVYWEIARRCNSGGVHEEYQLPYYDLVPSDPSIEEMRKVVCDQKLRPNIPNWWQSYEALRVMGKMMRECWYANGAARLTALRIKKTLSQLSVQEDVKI

[1] = molecular target: Casein kinase I isoform epsilon (Homo sapiens, UniProt P49674)
Sequence of Casein kinase I isoform epsilon (P49674 whole entry, canonical isoform): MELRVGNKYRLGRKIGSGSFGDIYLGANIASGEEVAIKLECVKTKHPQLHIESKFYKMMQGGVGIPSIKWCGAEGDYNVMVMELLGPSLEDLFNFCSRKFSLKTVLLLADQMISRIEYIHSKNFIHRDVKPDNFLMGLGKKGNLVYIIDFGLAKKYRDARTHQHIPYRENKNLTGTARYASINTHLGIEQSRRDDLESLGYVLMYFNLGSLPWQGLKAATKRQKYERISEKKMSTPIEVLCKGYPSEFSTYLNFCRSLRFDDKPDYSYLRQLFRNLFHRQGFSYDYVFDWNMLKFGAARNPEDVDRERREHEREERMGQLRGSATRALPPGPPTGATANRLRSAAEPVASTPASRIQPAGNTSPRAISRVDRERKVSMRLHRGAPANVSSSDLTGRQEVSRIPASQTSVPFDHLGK

[2] = molecular target: Ribosomal protein S6 kinase beta-1 (Homo sapiens, UniProt P23443)
Sequence of Ribosomal protein S6 kinase beta-1 (P23443 whole entry): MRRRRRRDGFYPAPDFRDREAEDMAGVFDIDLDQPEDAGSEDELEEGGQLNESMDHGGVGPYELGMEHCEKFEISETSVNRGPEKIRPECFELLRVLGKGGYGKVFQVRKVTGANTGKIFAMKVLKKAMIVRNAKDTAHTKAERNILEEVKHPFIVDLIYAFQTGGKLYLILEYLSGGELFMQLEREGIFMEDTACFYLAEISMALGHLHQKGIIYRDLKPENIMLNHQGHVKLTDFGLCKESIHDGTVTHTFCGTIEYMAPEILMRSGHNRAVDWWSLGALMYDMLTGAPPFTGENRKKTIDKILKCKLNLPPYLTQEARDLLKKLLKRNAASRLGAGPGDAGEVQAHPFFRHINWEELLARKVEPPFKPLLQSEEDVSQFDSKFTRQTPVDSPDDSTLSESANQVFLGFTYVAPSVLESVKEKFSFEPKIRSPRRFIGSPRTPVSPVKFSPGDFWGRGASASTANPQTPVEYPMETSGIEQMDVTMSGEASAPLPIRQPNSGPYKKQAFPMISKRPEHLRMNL

[3] = molecular target: T2, Mitogen-activated protein kinase kinase kinase 2 (Homo sapiens, UniProt Q9Y2U5)
T2 sequence (Q9Y2U5 whole entry): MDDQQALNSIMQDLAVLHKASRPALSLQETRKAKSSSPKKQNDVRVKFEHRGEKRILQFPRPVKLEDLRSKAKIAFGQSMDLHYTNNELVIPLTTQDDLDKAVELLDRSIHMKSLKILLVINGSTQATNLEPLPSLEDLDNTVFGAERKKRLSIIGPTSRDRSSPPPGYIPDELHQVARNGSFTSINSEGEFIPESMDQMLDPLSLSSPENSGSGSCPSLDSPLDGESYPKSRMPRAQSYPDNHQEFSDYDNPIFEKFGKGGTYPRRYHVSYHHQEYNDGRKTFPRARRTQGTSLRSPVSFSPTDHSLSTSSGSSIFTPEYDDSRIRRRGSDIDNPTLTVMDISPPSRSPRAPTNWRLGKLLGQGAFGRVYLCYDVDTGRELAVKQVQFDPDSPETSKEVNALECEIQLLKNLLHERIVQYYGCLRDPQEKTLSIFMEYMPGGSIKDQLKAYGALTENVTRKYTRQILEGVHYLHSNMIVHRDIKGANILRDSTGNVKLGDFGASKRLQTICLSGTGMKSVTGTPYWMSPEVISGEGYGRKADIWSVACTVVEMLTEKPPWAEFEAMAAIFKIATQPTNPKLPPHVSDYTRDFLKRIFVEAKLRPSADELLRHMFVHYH

[4] = molecular target: GTP-binding nuclear protein Ran (Homo sapiens, UniProt P62826)
ADP/ATP translocase 3 = molecular target: T3, ADP/ATP translocase 3 (Homo sapiens, UniProt P12236)
T3 sequence (P12236 whole entry): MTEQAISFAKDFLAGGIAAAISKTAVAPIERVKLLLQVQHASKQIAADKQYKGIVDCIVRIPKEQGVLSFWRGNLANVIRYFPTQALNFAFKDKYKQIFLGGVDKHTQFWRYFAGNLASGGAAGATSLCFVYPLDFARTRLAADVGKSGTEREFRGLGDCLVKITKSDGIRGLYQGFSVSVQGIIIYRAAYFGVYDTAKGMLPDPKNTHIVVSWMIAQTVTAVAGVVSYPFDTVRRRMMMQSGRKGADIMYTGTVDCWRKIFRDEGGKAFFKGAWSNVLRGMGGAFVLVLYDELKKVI

[5] = molecular target: Cyclin-dependent kinase 7 (Homo sapiens, UniProt P50613)
Sequence of Cyclin-dependent kinase 7 (P50613 whole entry): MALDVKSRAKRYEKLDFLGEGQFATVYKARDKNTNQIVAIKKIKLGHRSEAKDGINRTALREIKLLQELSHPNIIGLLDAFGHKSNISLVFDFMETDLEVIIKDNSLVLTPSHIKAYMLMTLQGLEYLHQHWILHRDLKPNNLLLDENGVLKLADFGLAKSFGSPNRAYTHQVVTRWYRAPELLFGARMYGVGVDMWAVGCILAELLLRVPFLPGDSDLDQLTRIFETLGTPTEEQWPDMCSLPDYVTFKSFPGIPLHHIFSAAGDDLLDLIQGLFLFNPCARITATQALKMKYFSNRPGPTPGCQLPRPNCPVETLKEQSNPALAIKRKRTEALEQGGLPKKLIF

[6] = molecular target: T4, Dual specificity mitogen-activated protein kinase kinase 5 (Homo sapiens, UniProt Q13163)
T4 sequence (Q13163 whole entry): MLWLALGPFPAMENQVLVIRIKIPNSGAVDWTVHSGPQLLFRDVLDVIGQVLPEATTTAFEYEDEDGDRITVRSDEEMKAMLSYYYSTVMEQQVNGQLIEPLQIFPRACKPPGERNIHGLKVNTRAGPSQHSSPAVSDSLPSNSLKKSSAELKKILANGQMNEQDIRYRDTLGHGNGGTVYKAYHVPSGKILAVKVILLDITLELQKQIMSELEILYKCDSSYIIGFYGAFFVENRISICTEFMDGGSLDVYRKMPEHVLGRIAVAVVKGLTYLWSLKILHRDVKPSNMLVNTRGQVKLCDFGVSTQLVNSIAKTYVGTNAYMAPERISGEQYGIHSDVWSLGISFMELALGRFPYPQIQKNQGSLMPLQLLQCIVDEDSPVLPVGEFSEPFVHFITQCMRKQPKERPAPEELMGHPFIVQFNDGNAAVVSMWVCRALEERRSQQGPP

[7] = molecular target: Structural maintenance of chromosomes protein 2 (Homo sapiens, UniProt O95347)
Sequence of Structural maintenance of chromosomes protein 2 (O95347 whole entry): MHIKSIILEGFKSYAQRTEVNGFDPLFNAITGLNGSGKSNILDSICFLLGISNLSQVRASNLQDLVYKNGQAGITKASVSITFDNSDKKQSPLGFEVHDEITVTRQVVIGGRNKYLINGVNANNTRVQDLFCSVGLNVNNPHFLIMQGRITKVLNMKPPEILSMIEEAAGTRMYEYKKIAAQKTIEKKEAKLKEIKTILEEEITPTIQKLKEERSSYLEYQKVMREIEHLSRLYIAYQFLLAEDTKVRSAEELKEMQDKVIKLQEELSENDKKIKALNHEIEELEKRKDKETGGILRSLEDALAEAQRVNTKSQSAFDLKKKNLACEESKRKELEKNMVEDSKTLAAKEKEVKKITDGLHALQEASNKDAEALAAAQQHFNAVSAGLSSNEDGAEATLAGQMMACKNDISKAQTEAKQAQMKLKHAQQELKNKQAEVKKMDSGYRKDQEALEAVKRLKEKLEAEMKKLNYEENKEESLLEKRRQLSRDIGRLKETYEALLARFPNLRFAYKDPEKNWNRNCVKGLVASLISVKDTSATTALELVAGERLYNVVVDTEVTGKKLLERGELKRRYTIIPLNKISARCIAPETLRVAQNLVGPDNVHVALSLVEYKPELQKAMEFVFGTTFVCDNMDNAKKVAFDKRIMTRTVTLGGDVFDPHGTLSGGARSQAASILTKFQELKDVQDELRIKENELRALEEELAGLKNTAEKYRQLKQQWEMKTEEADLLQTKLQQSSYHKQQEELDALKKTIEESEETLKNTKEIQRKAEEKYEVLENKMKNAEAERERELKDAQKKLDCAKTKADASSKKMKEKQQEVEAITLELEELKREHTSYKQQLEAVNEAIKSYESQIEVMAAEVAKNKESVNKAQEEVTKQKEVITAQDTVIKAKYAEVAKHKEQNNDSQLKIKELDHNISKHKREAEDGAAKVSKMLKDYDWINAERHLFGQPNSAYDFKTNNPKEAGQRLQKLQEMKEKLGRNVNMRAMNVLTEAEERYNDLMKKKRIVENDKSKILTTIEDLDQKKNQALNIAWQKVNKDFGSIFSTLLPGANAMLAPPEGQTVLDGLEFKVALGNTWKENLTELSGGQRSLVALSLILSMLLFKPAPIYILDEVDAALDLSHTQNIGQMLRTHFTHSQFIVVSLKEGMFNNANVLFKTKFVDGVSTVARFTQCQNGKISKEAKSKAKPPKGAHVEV

[8] = molecular target: T5, Serine/threonine-protein kinase ICK (Homo sapiens, UniProt Q9UPZ9)
T5 sequence (Q9UPZ9 whole entry): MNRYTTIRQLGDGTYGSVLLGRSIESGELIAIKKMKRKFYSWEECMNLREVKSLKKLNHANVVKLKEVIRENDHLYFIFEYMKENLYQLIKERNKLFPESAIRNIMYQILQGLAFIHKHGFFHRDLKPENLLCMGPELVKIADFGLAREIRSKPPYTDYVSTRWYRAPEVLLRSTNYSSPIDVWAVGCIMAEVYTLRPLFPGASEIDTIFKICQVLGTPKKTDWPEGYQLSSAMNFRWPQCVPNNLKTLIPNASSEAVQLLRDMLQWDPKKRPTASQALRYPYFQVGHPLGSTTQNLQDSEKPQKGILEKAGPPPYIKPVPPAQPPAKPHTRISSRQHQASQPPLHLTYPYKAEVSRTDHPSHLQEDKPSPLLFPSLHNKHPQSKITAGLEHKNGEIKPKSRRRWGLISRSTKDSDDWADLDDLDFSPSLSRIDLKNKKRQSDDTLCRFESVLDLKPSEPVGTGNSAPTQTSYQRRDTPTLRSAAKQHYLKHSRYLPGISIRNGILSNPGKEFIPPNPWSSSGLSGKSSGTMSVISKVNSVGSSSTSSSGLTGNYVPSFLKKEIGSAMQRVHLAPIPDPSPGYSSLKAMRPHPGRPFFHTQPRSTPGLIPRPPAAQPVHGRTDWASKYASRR
Also: in the data inactive means no Kd found up to 30 µM.

| Kd (Activin receptor type-1B) | Kd [1] | Kd [2] | Kd [3] | Kd [4] | Kd (ADP/ATP translocase 3) | Kd [5] | Kd [6] | Kd [7] | Kd [8] | Structure (SMILES) |
| --- | --- | --- | --- | --- | --- | --- | --- | --- | --- | --- |
| > 30 µM (inactive) | > 30 µM (inactive) | > 30 µM (inactive) | > 30 µM (inactive) | > 30 µM (inactive) | > 30 µM (inactive) | > 30 µM (inactive) | 9.43 µM (active) | > 30 µM (inactive) | > 30 µM (inactive) | CCN1CCN(Cc2ccc(-c3cc4c(N[C@H](C)c5ccccc5)ncnc4[nH]3)cc2)CC1 [AEE-788] |
| > 30 µM (inactive) | > 30 µM (inactive) | > 30 µM (inactive) | > 30 µM (inactive) | > 30 µM (inactive) | > 30 µM (inactive) | > 30 µM (inactive) | > 30 µM (inactive) | > 30 µM (inactive) | > 30 µM (inactive) | O=C1NC(=O)/C(=C/c2ccc3nccc(-c4ccncc4)c3c2)S1 [GSK-1059615] |
| > 30 µM (inactive) | > 30 µM (inactive) | > 30 µM (inactive) | > 30 µM (inactive) | > 30 µM (inactive) | > 30 µM (inactive) | > 30 µM (inactive) | > 30 µM (inactive) | > 30 µM (inactive) | > 30 µM (inactive) | CN1CCC(CNc2ccc3ncc(-c4cccc(OC(F)(F)F)c4)n3n2)CC1 [SGI-1776] |
| > 30 µM (inactive) | > 30 µM (inactive) | > 30 µM (inactive) | > 30 µM (inactive) | > 30 µM (inactive) | > 30 µM (inactive) | > 30 µM (inactive) | > 30 µM (inactive) | > 30 µM (inactive) | > 30 µM (inactive) | O=c1sn(-c2cccc3ccccc23)c(=O)n1Cc1ccccc1 [TIDEGLUSIB] |
| > 30 µM (inactive) | > 30 µM (inactive) | > 30 µM (inactive) | > 30 µM (inactive) | > 30 µM (inactive) | > 30 µM (inactive) | > 30 µM (inactive) | > 30 µM (inactive) | > 30 µM (inactive) | > 30 µM (inactive) | COc1cc(OC)c(/C=C/S(=O)(=O)Cc2ccc(OC)c(NCC(=O)O)c2)c(OC)c1 [RIGOSERTIB] |
| > 30 µM (inactive) | > 30 µM (inactive) | > 30 µM (inactive) | > 30 µM (inactive) | > 30 µM (inactive) | > 30 µM (inactive) | > 30 µM (inactive) | > 30 µM (inactive) | > 30 µM (inactive) | > 30 µM (inactive) | CN(C)C(=O)c1cc2cnc(Nc3ccc(N4CCNCC4)cn3)nc2n1C1CCCC1 [RIBOCICLIB] |
| > 30 µM (inactive) | > 30 µM (inactive) | > 30 µM (inactive) | > 30 µM (inactive) | > 30 µM (inactive) | > 30 µM (inactive) | > 30 µM (inactive) | > 30 µM (inactive) | > 30 µM (inactive) | > 30 µM (inactive) | COC(=O)N[C@@H](C)CNc1nccc(-c2cn(C(C)C)nc2-c2cc(Cl)cc(NS(C)(=O)=O)c2F)n1 [ENCORAFENIB] |
| > 30 µM (inactive) | > 30 µM (inactive) | > 30 µM (inactive) | > 30 µM (inactive) | > 30 µM (inactive) | > 30 µM (inactive) | > 30 µM (inactive) | > 30 µM (inactive) | > 30 µM (inactive) | 0.27 µM (active) | C1=C/COCc2cc(ccc2OCCN2CCCC2)Nc2nccc(n2)-c2cccc(c2)COC/1 [PACRITINIB] |
| > 30 µM (inactive) | > 30 µM (inactive) | > 30 µM (inactive) | > 30 µM (inactive) | > 30 µM (inactive) | > 30 µM (inactive) | > 30 µM (inactive) | > 30 µM (inactive) | > 30 µM (inactive) | > 30 µM (inactive) | Cn1cc(-c2ccc3nnc(C(F)(F)c4ccc5ncccc5c4)n3n2)cn1 [JNJ-38877605] |
| > 30 µM (inactive) | > 30 µM (inactive) | > 30 µM (inactive) | > 30 µM (inactive) | > 30 µM (inactive) | > 30 µM (inactive) | > 30 µM (inactive) | > 30 µM (inactive) | > 30 µM (inactive) | > 30 µM (inactive) | COCCNCc1ccc(-c2cc3nccc(Oc4ccc(NC(=S)NC(=O)Cc5ccc(F)cc5)cc4F)c3s2)nc1 [GLESATINIB] |
| > 30 µM (inactive) | > 30 µM (inactive) | > 30 µM (inactive) | > 30 µM (inactive) | > 30 µM (inactive) | > 30 µM (inactive) | > 30 µM (inactive) | > 30 µM (inactive) | > 30 µM (inactive) | > 30 µM (inactive) | N[C@@H]1CCCN(c2c(/C=C3\SC(=O)NC3=O)cccc2-c2ccccc2)C1 |
| > 30 µM (inactive) | > 30 µM (inactive) | > 30 µM (inactive) | > 30 µM (inactive) | > 30 µM (inactive) | > 30 µM (inactive) | > 30 µM (inactive) | > 30 µM (inactive) | > 30 µM (inactive) | > 30 µM (inactive) | CNC(=O)CN1CCC(Oc2cc3c(Nc4cccc(Cl)c4F)ncnc3cc2OC)CC1 [SAPITINIB] |

| Structure (SMILES) | Kd (Activin receptor type-1B) | Kd [1] | Kd [2] | Kd [3] | Kd [4] | Kd (ADP/ATP translocase 3) | Kd [5] | Kd [6] | Kd [7] | Kd [8] |
| --- | --- | --- | --- | --- | --- | --- | --- | --- | --- | --- |
| CN1CC[C@@H](c2c(O)cc(O)c3c(=O)cc(-c4ccccc4Cl)oc23)[C@@H]1CO | > 30 µM (inactive) | > 30 µM (inactive) | > 30 µM (inactive) | > 30 µM (inactive) | > 30 µM (inactive) | > 30 µM (inactive) | > 30 µM (inactive) | > 30 µM (inactive) | > 30 µM (inactive) | 0.892 µM (active) |
| Cc1cc(-c2cc(O)ccc2Cl)cc2nnc(Nc3ccc(OCCN4CCCC4)cc3)nc12 | 0.001 µM (active) | > 30 µM (inactive) | > 30 µM (inactive) | > 30 µM (inactive) | > 30 µM (inactive) | > 30 µM (inactive) | > 30 µM (inactive) | > 30 µM (inactive) | > 30 µM (inactive) | > 30 µM (inactive) |

Source: ChEMBL document CHEMBL3991601, “The target landscape of clinical kinase drugs” (Science, 2017)
